Experimental data taken from the supplement of paper PMC6045584.
± gives the standard deviation of the averaged measurements.

Tests used:
CRIZOTINIB = compound: C[C@@H](Oc1cc(-c2cnn(C3CCNCC3)c2)cnc1N)c1c(Cl)ccc(F)c1Cl [CRIZOTINIB]; experiment: surviving fraction relative to DMSO-only wells; higher = less growth inhibition; conditions: exposure time: 5 days
Summary of the method: (§1)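 In 384-well plates, 250–500 log-phase tumour cells per well were given 24 hours before five days of continuous exposure to inhibitors at 0.5, 1, 5, 10, 50, 100, 500 and 1000 nM. Surviving fraction is luminescence from CellTiter-Glo, normalised to the median of wells containing DMSO alone. Reading took place after 10 minutes at room temperature.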

ABIRATERONE = compound: C[C@]12CC[C@H](O)CC1=CC[C@@H]1[C@@H]2CC[C@]2(C)C(c3cccnc3)=CC[C@@H]12 [ABIRATERONE]; experiment: as above; conditions: exposure time: 5 days
Summary of the method: as §1

Row | Test System | surviving fraction (CRIZOTINIB; 0.5 nM) | surviving fraction (CRIZOTINIB; 1 nM) | surviving fraction (CRIZOTINIB; 5 nM) | surviving fraction (CRIZOTINIB; 50 nM) | surviving fraction (CRIZOTINIB; 100 nM) | surviving fraction (CRIZOTINIB; 500 nM) | surviving fraction (CRIZOTINIB; 1000 nM) | surviving fraction (ABIRATERONE; 0.5 nM) | surviving fraction (ABIRATERONE; 1 nM) | surviving fraction (ABIRATERONE; 5 nM) | surviving fraction (ABIRATERONE; 10 nM) | surviving fraction (ABIRATERONE; 50 nM) | surviving fraction (ABIRATERONE; 100 nM) | surviving fraction (ABIRATERONE; 500 nM) | surviving fraction (ABIRATERONE; 1000 nM) | surviving fraction (CRIZOTINIB; 10 nM)
1 | CAL120 BREAST | 0.969 ± 0.069 | 1 ± 0.076 | 0.982 ± 0.038 | 1 ± 0.04 | 1.01 ± 0.049 | 0.933 ± 0.012 | 0.685 ± 0.026 | 0.954 ± 0.011 | 1 ± 0.015 | 1.01 ± 0.013 | 1.01 ± 0.011 | 1.04 ± 0.059 | 1.04 ± 0.041 | 1.05 ± 0.028 | 0.988 ± 0.037 | –
2 | KPD BONE | 0.936 ± 0.05 | 1.01 ± 0.038 | – | – | – | – | 0.245 ± 0.011 | 0.966 ± 0.05 | 0.993 ± 0.054 | 1.02 ± 0.012 | 1.07 ± 0.043 | 1.07 ± 0.054 | 1.09 ± 0.041 | 1.01 ± 0.035 | 0.976 ± 0.054 | 1.16 ± 0.03
3 | H23 LUNG | 1.04 ± 0.058 | 1.02 ± 0.025 | 1.07 ± 0.04 | 1.06 ± 0.062 | 1.11 ± 0.059 | 1.11 ± 0.072 | – | 1.07 ± 0.058 | 1.05 ± 0.062 | 1.06 ± 0.056 | 1.07 ± 0.049 | 1.1 ± 0.063 | 1.16 ± 0.032 | 1.17 ± 0.031 | 1.16 ± 0.072 | 1.08 ± 0.02
4 | SCC90 HEADNECK | 1.06 ± 0.036 | 0.972 ± 0.058 | 1.04 ± 0.087 | 1.08 ± 0.0074 | 1.12 ± 0.066 | 0.9977 ± 0.0097 | 0.762 ± 0.085 | 1.26 ± 0.13 | 1.09 ± 0.15 | 1.25 ± 0.14 | 1.23 ± 0.18 | 1.21 ± 0.04 | 1.28 ± 0.1 | 1.23 ± 0.11 | 1.17 ± 0.062 | 1.1 ± 0.067
5 | SUM44 BREAST | 1.28 ± 0.41 | 1.26 ± 0.39 | – | 1.33 ± 0.42 | 1.36 ± 0.47 | 1.25 ± 0.46 | 1.17 ± 0.43 | 0.949 ± 0.017 | 0.962 ± 0.057 | 1.02 ± 0.037 | 0.991 ± 0.045 | 1.06 ± 0.034 | 1.12 ± 0.07 | 1.1 ± 0.047 | 1.03 ± 0.031 | 1.25 ± 0.42
6 | NOS1 BONE | 1.03 ± 0.12 | 1.13 ± 0.07 | 1.11 ± 0.044 | 1.11 ± 0.043 | 1.69 ± 0.86 | 0.69 ± 0.036 | 0.484 ± 0.051 | 1.27 ± 0.16 | 1.05 ± 0.044 | 1.23 ± 0.089 | 1.22 ± 0.099 | 1.19 ± 0.15 | 1.24 ± 0.17 | 1.2 ± 0.095 | 0.999 ± 0.04 | 1.23 ± 0.2
7 | NCIH441 LUNG | 1.23 ± 0.069 | 1.2 ± 0.067 | 1.09 ± 0.038 | 1.04 ± 0.045 | 0.967 ± 0.089 | 1.02 ± 0.058 | 0.83 ± 0.16 | 1.04 ± 0.067 | 1.02 ± 0.12 | 1.08 ± 0.14 | 1.01 ± 0.077 | 1.1 ± 0.065 | 1.05 ± 0.11 | 1.01 ± 0.046 | 0.948 ± 0.051 | 1.12 ± 0.043
8 | SUM149 BREAST | 1.08 ± 0.024 | 1.05 ± 0.075 | – | 1.01 ± 0.13 | – | 0.817 ± 0.07 | 0.51 ± 0.072 | 1.05 ± 0.046 | 1.006 ± 0.01 | 1.07 ± 0.014 | 1.04 ± 0.038 | 0.947 ± 0.085 | 0.872 ± 0.1 | 0.902 ± 0.069 | 0.892 ± 0.071 | 0.96 ± 0.033
9 | MFM223 BREAST | 1.21 ± 0.058 | 1.2 ± 0.019 | 1.21 ± 0.058 | 1.07 ± 0.058 | – | 1.07 ± 0.011 | 1.084 ± 0.0027 | 1.19 ± 0.033 | 1.1 ± 0.08 | 1.17 ± 0.031 | 1.14 ± 0.099 | 1.22 ± 0.029 | 1.22 ± 0.015 | 1.2 ± 0.1 | 1.1 ± 0.1 | 1.11 ± 0.033
10 | ASKA SYNOVIAL | – | 0.942 ± 0.039 | 0.848 ± 0.05 | 0.539 ± 0.043 | 0.405 ± 0.016 | 0.168 ± 0.0038 | 0.205 ± 0.0093 | 1.19 ± 0.076 | 1.19 ± 0.11 | 1.23 ± 0.076 | 1.11 ± 0.11 | 1.2 ± 0.059 | 1.28 ± 0.069 | 1.19 ± 0.099 | 1.04 ± 0.1 | 0.7377 ± 0.007
11 | HSSYII SYNOVIAL | 1.04 ± 0.045 | 1.03 ± 0.037 | 1.03 ± 0.05 | 0.934 ± 0.034 | – | 0.392 ± 0.037 | 0.189 ± 0.0013 | 0.989 ± 0.03 | 0.972 ± 0.034 | 0.937 ± 0.013 | 0.974 ± 0.027 | 0.983 ± 0.068 | 0.966 ± 0.023 | 0.962 ± 0.048 | 0.957 ± 0.042 | 1 ± 0.083
12 | RDES SOFT TISSUE | – | 1.24 ± 0.083 | – | – | 1.16 ± 0.1 | 1.44 ± 0.12 | 0.194 ± 0.047 | 1.19 ± 0.14 | 1.18 ± 0.12 | 1.21 ± 0.15 | 1.13 ± 0.11 | 1.2 ± 0.25 | 1.22 ± 0.25 | 1.28 ± 0.23 | 1.36 ± 0.27 | 1.15 ± 0.11
13 | JURKAT HAEMATOPOIETIC AND LYMPHOID TISSUE | 1.04 ± 0.011 | – | – | – | 0.928 ± 0.028 | 0.212 ± 0.0087 | 0.306 ± 0.011 | 1.09 ± 0.027 | 1.106 ± 0.0066 | 1.09 ± 0.022 | 1.07 ± 0.016 | 1.08 ± 0.018 | 1.03 ± 0.037 | 1.01 ± 0.022 | 0.995 ± 0.029 | 0.96 ± 0.035
14 | JIMT1 BREAST | 1.01 ± 0.029 | 1.01 ± 0.029 | 1.03 ± 0.012 | 1.07 ± 0.045 | 1.08 ± 0.036 | 0.833 ± 0.044 | 0.538 ± 0.022 | 0.9997 ± 0.0033 | 0.965 ± 0.027 | 0.981 ± 0.02 | 0.962 ± 0.013 | 1.08 ± 0.047 | 1.08 ± 0.032 | 1.02 ± 0.042 | 0.929 ± 0.012 | 1 ± 0.032
15 | 22RV1 PROSTATE | 0.993 ± 0.1 | 1.11 ± 0.083 | – | 1.11 ± 0.091 | 0.976 ± 0.16 | – | 0.459 ± 0.024 | 1.06 ± 0.047 | 1.09 ± 0.086 | 1.07 ± 0.062 | 1.09 ± 0.047 | 1.11 ± 0.029 | 1.09 ± 0.051 | 1.17 ± 0.067 | 1.08 ± 0.054 | –
16 | NY BONE | 1.07 ± 0.052 | 1.06 ± 0.047 | 1.12 ± 0.041 | 1.08 ± 0.035 | 1.02 ± 0.021 | 0.883 ± 0.026 | 0.577 ± 0.018 | 1.05 ± 0.021 | 1.06 ± 0.029 | 1.08 ± 0.034 | 1.1 ± 0.059 | 1.105 ± 0.011 | 1.09 ± 0.032 | 1.08 ± 0.027 | 1.06 ± 0.028 | 1.09 ± 0.038
17 | CHLA90 AUTONOMIC GANGLIA | – | 1 ± 0.025 | 0.951 ± 0.016 | – | – | 0.755 ± 0.14 | 0.476 ± 0.096 | 1.01 ± 0.064 | 1.07 ± 0.043 | 1.06 ± 0.023 | 1.05 ± 0.044 | 1.05 ± 0.052 | 0.993 ± 0.096 | 1.08 ± 0.017 | 1.09 ± 0.05 | 0.929 ± 0.056
18 | 143B BONE | – | – | 1.08 ± 0.012 | 1.09 ± 0.015 | – | – | 0.865 ± 0.011 | 1.04 ± 0.013 | 1.046 ± 0.005 | 1.05 ± 0.023 | 1.03 | 1.06 ± 0.035 | 1.07 ± 0.035 | 1.02 ± 0.012 | 1.01 ± 0.029 | –
